Read-outs that look alike come from different tables or passages of the source.
What was measured:
[1] = target: Aβ(1-42) Oligomers/Polymers (Homo sapiens, UniProt P05067); experiment: Biacore (SPR) screening on immobilized Aβ42 oligomers/soluble polymers; format: binding; set-up: Binding to oligomers/polymers (Aβ1-42): key to the marks not given beside the values; settings: for BINDING LEVELS TO Aβ(1-42) Oligomers/Polymers: screening compounds at 10 uM; for Binding to oligomers/polymers (Aβ1-42): carbazole-based hits
Chain of Aβ(1-42) Oligomers/Polymers (P05067 672-713 limits assumed): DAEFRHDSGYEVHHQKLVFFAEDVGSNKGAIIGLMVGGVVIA

Aβ(1-42) Fibrils = Aβ(1-42) Fibrils (Homo sapiens, UniProt P05067); experiment: Biacore (SPR) screening on immobilized Aβ42 fibrils; format: binding; settings: for BINDING LEVELS TO Aβ(1-42) Fibrils: screening compounds at 10 uM; for Binding to fibrils (Aβ1-42): carbazole-based hits;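 as to BINDING LEVELS TO Aβ(1-42) Fibrils: minus means no binding and more plus signs mean higher affinity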
Chain of Aβ(1-42) Fibrils (P05067 672-713 limits assumed): as above

Aβ monomer = settings: read-out: Binding Affinity IC50; cited from earlier work
[2] = target: T1, Amyloid (AD patient's brain slice) (Homo sapiens, UniProt P05067); experiment: IC50 determination with [18F]-PiB by ex vivo competition assay using autoradiography staining; format: binding
T1 construct: The brain slices were 20 um thick
T1 sequence (P05067 672-711 limits assumed): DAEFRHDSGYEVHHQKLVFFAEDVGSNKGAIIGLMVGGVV
Source text: (§1) Ex Vivo Competition Assay Using Amyloid (AD patient's brain slice) Autoradiography Staining

[3] = tested on: Amyloid (AD brain slices); experiment: [18F]-CB001 competition studies on AD brain slices; format: binding, human; settings: cold competitor, increasing concentrations
[4] = tested on: Amyloid (AD patient's brain slice); experiment: Amyloid autoradiography staining of AD patient's brain slices, grey/white matter binding with wash protocols; set-up: species or system human
Procedure: as §1
A study was conducted to examine the grey to white matter binding ratios for 4 different tracers: CB-001, CB-003, FDDNP and F-PiB (FIG. 7 and FIG. 8). […] After the human brain slices from AD patients were incubated with a given tracer for 30 min, the slices were washed with various EtOH:water solutions in an attempt to optimize the grey-to white matter ratios (FIG. 9). The results were surprising and unexpected in view of previous work performed by other researchers. CB-001 has a slightly higher c Log P than FDDNP (3.8 vs 3.4) and would be expected to have poorer washout than FDDNP based on these values. […] More specifically, the white matter binding of FDDNP is several shades darker than CB-001's white matter binding, indicating low non-specific binding of CB-001.

[5] = determination 1, vs [18F]-PiB, read-out: IC50 1
[6] = determination 3, vs [18F]-PiB, read-out: IC50 3
[7] = determination 5, vs [18F]-PiB, read-out: IC50 5
[8] = determination 6, vs [18F]-PiB, read-out: IC50 6
[9] = determination 13, vs [18F]-PiB, read-out: IC50 13
[10] = mean of determinations, vs [18F]-PiB, read-out: Average IC50
[11] = determination 4, vs [18F]-PiB, read-out: IC50 4
[12] = determination 7, vs [18F]-PiB, read-out: IC50 7

Compound	BINDING LEVELS TO Aβ(1-42) Oligomers/Polymers [1]	BINDING LEVELS TO Aβ(1-42) Fibrils (Aβ(1-42) Fibrils)	further results
Nc1ccc2[nH]c(C(F)(F)F)nc2c1	++	+	
O=c1cc(-c2ccccc2)oc2cc(O)ccc12	+	+	
COc1cccc2oc(-c3ccccc3)cc(=O)c12	+	−	
Oc1cnc(Cl)c2ccccc12	+	−	
Cc1ccc(O)c(-c2ccno2)c1	+	+	
CC1NCCc2cc(O)c(O)cc21 (centres unmarked)	++	+	
Nc1ccc(O)c2ncccc12	++	+	
Cc1oc2cc(O)ccc2c(=O)c1-c1nncn1-c1ccccc1	++	+	
Cc1oc2c(C)c(O)ccc2c(=O)c1-c1nncn1-c1ccccc1	++	−	
O=c1c(O)c(-c2cccc(O)c2)oc2ccc(O)cc12	++++	++	
Cc1cc(C)c2oc(-c3ccco3)c(O)c(=O)c2c1	+	−	
Cc1cc(C)c2oc(-c3cccs3)c(O)c(=O)c2c1	+	−	
Fc1ccc(-c2cn(-c3cccc(C(F)(F)F)c3)nn2)c(F)c1	+	+	
Fc1ccc(-c2cn(-c3ccc(Cl)c(Cl)c3)nn2)c(F)c1	+	−	
Fc1cc(F)cc(-c2cn(-c3cc(Cl)ccc3Cl)nn2)c1	+	−	
Fc1cc(F)cc(-c2cn(-c3ccc(F)cc3F)nn2)c1	++++	−	
Nc1cccc(-c2cn(-c3cc(Cl)cc(Cl)c3)nn2)c1	+	+	

Compound	BINDING LEVELS TO Aβ(1-42) Oligomers/Polymers [1]	BINDING LEVELS TO Aβ(1-42) Fibrils (Aβ(1-42) Fibrils)	further results
C[S+]([O-])c1ccc(-c2nc(-c3ccc(F)cc3)c(-c3ccncc3)[nH]2)cc1 (centres unmarked)	++	+	
Oc1ccc(-c2nc(-c3ccncc3)c(-c3ccc(F)cc3)[nH]2)cc1	++	++	
Fc1ccc(-c2nc(-c3ccccc3)c(-c3ccccc3)[nH]2)cc1		−	
O=S(=O)(O)c1cccc2cccc(Nc3ccccc3)c12 [ANS]			IC50 (Aβ monomer): > 100 µM
CNc1ccc2c(c1)[nH]c1cc(OCCOCCOCCF)ccc12 [CB-004, 7-(2-(2-(2-fluoroethoxy)ethoxy)ethoxy)-N-methyl-9H-carbazol-2-amine]			IC50 [2, 5]: 0.26 µM; IC50 [2, 6]: 0.35 µM; IC50 [2, 7]: 0.3 µM; IC50 [2, 8]: 0.3 µM; IC50 [2, 9]: 0.4 µM; IC50 [2, 10]: 0.322 µM
CN(C)c1ccc2c(c1)[nH]c1cc(OCCOCCOCCF)ccc12 [CB-007, 7-(2-(2-(2-fluoroethoxy)ethoxy)ethoxy)-N,N-dimethyl-9H-carbazol-2-amine]			IC50 [2, 5]: 0.26 µM; IC50 [2, 6]: 0.17 µM; IC50 [2, 7]: 0.2 µM; IC50 [2, 8]: 0.29 µM; IC50 [2, 9]: 0.3 µM; IC50 [2, 10]: 0.244 µM
O=CNc1ccc2c(c1)[nH]c1cc(OCCOCCOCCF)ccc12 [CB-010, N-(7-(2-(2-(2-fluoroethoxy)ethoxy)ethoxy)-9H-carbazol-2-yl)formamide]			IC50 [2, 11]: 0.9 µM; IC50 [2, 10]: 0.9 µM
O=CNc1ccc2c(c1)[nH]c1cc(OCCF)ccc12 [CB-012, N-(7-(2-fluoroethoxy)-9H-carbazol-2-yl)formamide]			IC50 [2, 11]: 0.61 µM; IC50 [2, 7]: 0.3 µM; IC50 [2, 8]: 0.45 µM; IC50 [2, 12]: 0.39 µM; IC50 [2, 10]: 0.438 µM
O=CNc1ccc2c(c1)[nH]c1cc(OCCOCCF)ccc12 [CB-024, N-(7-(2-(2-fluoroethoxy)ethoxy)-9H-carbazol-2-yl)formamide]			IC50 [2, 12]: 0.54 µM; IC50 [2, 10]: 0.54 µM
Nc1c(/N=N/c2ccc(-c3ccc(/N=N/c4cc(S(=O)(=O)O)c5ccccc5c4N)cc3)cc2)cc(S(=O)(=O)O)c2ccccc12 [Congo Red]			IC50 (Aβ monomer): 2 to 10 µM
COc1cc(/C=C/C(=O)/C=C(O)/C=C/c2ccc(O)c(OC)c2)ccc1O [Curcumin]			IC50 (Aβ monomer): 10 to 20 µM
CC(=C(C#N)C#N)c1ccc2cc(N(C)CCF)ccc2c1 [FDDNP, reference compound]			blocking of [18F]-CB001 staining [3]: much less capable of blocking [18F]-CB001 staining; Grey/white matter binding ratio using mild wash conditions ([4]; 30 min incubation, PBS, 30%/40%/20% EtOH:water, PBS, 20 um AD brain slices): Poor; Grey/white matter binding ratio using harsh FDDNP wash conditions ([4]; 30 min incubation, PBS, 70%/90%/70% EtOH:water, PBS, 20 um AD brain slices): Fair; order of (non-specific) white matter binding ([4]; AD brain slices): FDDNP>CB001>[18F]-PiB>CB003
[11CH3]Nc1ccc(-c2nc3ccc(O)cc3s2)cc1 [PiB, reference compound]			blocking of [18F]-CB001 staining [3]: blocks [18F]-CB001 staining with increasing concentrations
Cc1ccc2c(c1)sc(-c1ccc(N(C)C)cc1)[n+]2C [Thioflavin T]			IC50 (Aβ monomer): > 500 µM
Cc1nccc2c1[nH]c1cc(O)ccc12 [drawing 32]	++	+	
Cc1nccc2c1[nH]c1cc(O)ccc12 [drawing 134]			Binding to oligomers/polymers (Aβ1-42) [1]: ++; Binding to fibrils (Aβ1-42) (Aβ(1-42) Fibrils): +
Oc1ccc2c(c1)[nH]c1ccccc12 [drawing 135]			Binding to oligomers/polymers (Aβ1-42) [1]: +++; Binding to fibrils (Aβ1-42) (Aβ(1-42) Fibrils): +

More lines, main results first:

BINDING LEVELS TO Aβ(1-42) Oligomers/Polymers [1]	BINDING LEVELS TO Aβ(1-42) Fibrils (Aβ(1-42) Fibrils)	Compound	further results
++	+	O=c1cc(-c2ccccc2)oc2ccc(O)cc12	
+++	++	O=c1c(O)c(-c2ccccc2)oc2ccc(O)cc12	
++++++	+++++	O=c1c(O)c(-c2ccc(O)c(O)c2)oc2cc(O)ccc12	
+++++	+++	O=c1cc(-c2ccccc2)c2ccc(O)c(O)c2o1	
+	−	Cc1c(-c2ccccc2)c(=O)oc2cc(O)ccc12	
+	+	CCOc1ccc2c(=O)c(Oc3ccccc3)c(C)oc2c1	
+	−	CCOc1ccc(Oc2c(C)oc3cc(O)ccc3c2=O)cc1	
+	−	CCc1cc2c(=O)c(-c3ccc(F)cc3)c(C)oc2cc1O	
+	−	COc1ccc2c(=O)c(-c3ccccc3)c(C)oc2c1OC	
++++	++	O=c1c(O)c(-c2ccccc2)[nH]c2ccccc12	
+	+	Cc1c(-c2ccccc2)oc2cc(O)ccc2c1=O	
+++	+	COc1ccc2oc(-c3ccc(OC)c(OC)c3)c(OC)c(=O)c2c1	
+	−	COc1cccc(-c2oc3cc(OC)ccc3c(=O)c2OC)c1	
+	+	Cc1oc2cc(O)ccc2c(=O)c1-c1ccc(F)cc1	
+	+	COc1c(-c2ccco2)oc2ccccc2c1=O	
+++	+	Oc1ccc2c(c1)[nH]c1ccccc12 [drawing 33]	
